Test results as given in ChEMBL document CHEMBL1129522, “Inhibitors of acyl-CoA:cholesterol O-acyltransferase. 17. Structure-activity relationships of several series of compounds derived from N-chlorosulfonyl isocyanate” (J Med Chem, 1996).

How the values were obtained:
[1] = molecular target: T1, Sterol O-acyltransferase 1 (Rattus norvegicus, UniProt O70536); test: In vitro inhibitory activity against acyl coenzyme A:cholesterol acyltransferase 1 in microsomes of rat liver
T1 sequence (O70536 whole entry): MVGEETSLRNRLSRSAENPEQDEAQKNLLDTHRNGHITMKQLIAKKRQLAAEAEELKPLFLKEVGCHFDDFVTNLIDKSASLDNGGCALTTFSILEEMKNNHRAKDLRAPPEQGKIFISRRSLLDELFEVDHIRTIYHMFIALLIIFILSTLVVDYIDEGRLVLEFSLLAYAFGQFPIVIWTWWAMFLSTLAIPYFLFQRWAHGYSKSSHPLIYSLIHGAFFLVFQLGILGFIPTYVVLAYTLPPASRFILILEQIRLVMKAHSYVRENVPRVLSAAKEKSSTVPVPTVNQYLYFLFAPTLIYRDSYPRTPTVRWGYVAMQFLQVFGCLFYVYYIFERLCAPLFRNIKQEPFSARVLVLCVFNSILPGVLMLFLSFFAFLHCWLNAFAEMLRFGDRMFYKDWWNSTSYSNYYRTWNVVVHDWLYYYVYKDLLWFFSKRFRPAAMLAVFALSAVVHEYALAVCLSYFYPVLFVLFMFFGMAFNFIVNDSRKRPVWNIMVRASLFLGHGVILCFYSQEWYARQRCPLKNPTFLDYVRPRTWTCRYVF

Rattus norvegicus = test: Acute in vivo activity measured by total plasma cholesterol concentration levels (TC) at 30 mg/kg dose; type: functional

| SMILES | IC50 [1] [µM] | Delta TC (Rattus norvegicus) [%] |
| --- | --- | --- |
| CC(C)c1cccc(C(C)C)c1OS(=O)(=O)NC(=O)Sc1c(C(C)C)cccc1C(C)C | 8.7 | -17 |
| COc1cccc(OC)c1OC(=O)[N-]S(=O)(=O)Oc1c(C(C)C)cccc1C(C)C.[Na+] | 48 | -49 |
| CCC(C)N(C(=O)NS(=O)(=O)Oc1c(C(C)C)cccc1C(C)C)C(C)CC (stereo not drawn) | 12 | -20 |
| CC(C)c1cccc(C(C)C)c1OS(=O)(=O)NC(=O)O[C@@H]1C[C@H](C)CCC1C(C)C (stereo partly drawn) | 21 | -40 |
| CC(C)c1cccc(C(C)C)c1OS(=O)(=O)NC(=O)Oc1c(F)c(F)c(F)c(F)c1F | 66 | -5 |
| CC(C)c1cc(Cl)cc(C(C)C)c1OC(=O)NS(=O)(=O)Oc1c(C(C)C)cccc1C(C)C | 42 | 2 |
| CCCCCCCCCCCCOS(=O)(=O)NC(=O)Sc1c(C(C)C)cccc1C(C)C | 48 | -9 |
| CC(C)c1cccc(C(C)C)c1OC(=O)NS(=O)(=O)Oc1ccccc1 | > 50 | -26 |
| CC(C)(C)c1cccc(C(C)(C)C)c1OC(=O)NS(=O)(=O)Oc1c(C(C)(C)C)cccc1C(C)(C)C | 30 | -18 |
| CCCCCCC(C)OC(=O)NS(=O)(=O)Oc1c(C(C)C)cccc1C(C)C (stereo not drawn) | 26 | -32 |
| CC(C)c1cccc(C(C)C)c1OC(=O)NS(=O)(=O)Oc1c(C(C)C)cccc1C(C)C | 9.4 | -70 |
| CC(C)c1cccc(C(C)C)c1OS(=O)(=O)NC(=O)OC1CCCCC1 | 38 | -38 |
| Cc1cccc(C(C)(C)C)c1OC(=O)NS(=O)(=O)Oc1c(C(C)C)cccc1C(C)C | 49 | -15 |
| CCOC(=O)[N-]S(=O)(=O)Oc1c(C(C)C)cccc1C(C)C.[Na+] | > 50 | 17 |
| CC(C)c1cccc(C(C)C)c1OC(=O)NS(=O)(=O)Oc1c(C(C)C)cc(O)cc1C(C)C | > 50 | -15 |
| CCc1cccc(CC)c1COC(=O)NS(=O)(=O)Oc1c(C(C)C)cccc1C(C)C | 20 | -2 |
| CC(C)c1cccc(C(C)C)c1OS(=O)(=O)NC(=O)Oc1c(F)cccc1F | 65 | -27 |
| COc1cc(C(C)(C)C)c(OC(=O)NS(=O)(=O)Oc2c(C(C)C)cccc2C(C)C)c(C(C)(C)C)c1 | 4.8 | -72 |
| CCCCCCCCCCCCN(CCCCCCCCCCCC)S(=O)(=O)NC(=O)Nc1c(C(C)C)cccc1C(C)C | 69 | -5 |
| CC(C)c1cccc(C(C)C)c1OS(=O)(=O)NC(=O)OC12CC3CC(CC(C3)C1)C2 | 13 | -10 |
| CC(C)c1cccc(C(C)C)c1OS(=O)(=O)NC(=O)Oc1ccc(Cl)cc1 | 97 | -8 |
| CC(C)c1cccc(C(C)C)c1OS(=O)(=O)NC(=O)OC1[C@H](C(C)C)CCC[C@H]1C(C)C (relative stereo) | 5.7 | -35 |
| CC(C)c1cccc(C(C)C)c1OC(=O)NS(=O)(=O)Oc1ccc(F)cc1F | > 50 | -11 |
| CC(C)c1cccc(C(C)C)c1OS(=O)(=O)NC(=O)Oc1ccc(F)cc1 | > 50 | -21 |
| CCOC(=O)NS(=O)(=O)Oc1c(C(C)C)cccc1C(C)C | > 50 | -14 |
| CC(C)c1cccc(C(C)C)c1OS(=O)(=O)NC(=O)Oc1cccnc1 | > 50 | -2 |
| CC(C)c1cccc(C(C)C)c1OS(=O)(=O)NC(=O)Oc1c(C(C)(C)C)cc(CN(C)C)cc1C(C)(C)C | 22 | 2 |
| COc1cc(OC)c(OC(=O)NS(=O)(=O)Oc2c(C(C)C)cccc2C(C)C)c(OC)c1 | > 25 | -5 |
| CC(=O)c1cc(C(C)C)c(OC(=O)NS(=O)(=O)Oc2c(C(C)C)cccc2C(C)C)c(C(C)C)c1 | 41.8 | -16 |
